Tests used:
[1] = target: T1, Alpha-2A adrenergic receptor (Homo sapiens, UniProt P08913); experiment: Inhibitory activity against alpha-2A adrenergic receptor by using [3H]MK-912 as radioligand expressed in COS-1 cells; format: cell-based
T1 sequence (P08913 whole entry): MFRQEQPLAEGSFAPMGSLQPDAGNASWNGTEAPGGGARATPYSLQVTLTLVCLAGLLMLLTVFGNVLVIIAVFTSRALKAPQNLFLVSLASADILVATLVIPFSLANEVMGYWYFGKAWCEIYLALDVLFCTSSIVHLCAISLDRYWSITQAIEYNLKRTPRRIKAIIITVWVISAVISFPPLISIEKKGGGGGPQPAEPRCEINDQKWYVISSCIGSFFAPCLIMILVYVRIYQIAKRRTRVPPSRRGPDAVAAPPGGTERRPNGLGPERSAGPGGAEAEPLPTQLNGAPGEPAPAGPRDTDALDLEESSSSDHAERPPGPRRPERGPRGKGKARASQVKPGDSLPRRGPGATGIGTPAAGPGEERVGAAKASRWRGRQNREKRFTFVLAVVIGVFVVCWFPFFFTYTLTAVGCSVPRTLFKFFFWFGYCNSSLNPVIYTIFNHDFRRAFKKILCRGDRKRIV

[2] = target: Melanin-concentrating hormone receptor 1 (Homo sapiens, UniProt Q99705); experiment: Inhibitory activity against human CA-MCH-R1 (Melanin-concentrating hormone receptor 1) by using [125I](Phe13,Tyr19)MCH as radioligand expressed in HEK293 cells; format: cell-based
Chain of Melanin-concentrating hormone receptor 1 (Q99705 whole entry): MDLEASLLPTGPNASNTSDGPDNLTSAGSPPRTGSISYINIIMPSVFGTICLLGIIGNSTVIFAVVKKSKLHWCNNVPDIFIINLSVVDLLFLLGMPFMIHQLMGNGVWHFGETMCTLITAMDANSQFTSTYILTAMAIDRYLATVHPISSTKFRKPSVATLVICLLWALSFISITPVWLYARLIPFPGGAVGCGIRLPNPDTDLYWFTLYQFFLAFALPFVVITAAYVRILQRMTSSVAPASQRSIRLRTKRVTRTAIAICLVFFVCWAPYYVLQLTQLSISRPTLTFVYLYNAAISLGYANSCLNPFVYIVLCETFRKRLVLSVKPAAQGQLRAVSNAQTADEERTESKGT

[3] = target: T2, Neuropeptide Y receptor type 5 (Homo sapiens, UniProt Q15761); experiment: Inhibitory activity against neuropeptide Y receptor type 5 by using [125I]PYY as radioligand expressed in COS-1 cells; format: cell-based
T2 sequence (Q15761 whole entry): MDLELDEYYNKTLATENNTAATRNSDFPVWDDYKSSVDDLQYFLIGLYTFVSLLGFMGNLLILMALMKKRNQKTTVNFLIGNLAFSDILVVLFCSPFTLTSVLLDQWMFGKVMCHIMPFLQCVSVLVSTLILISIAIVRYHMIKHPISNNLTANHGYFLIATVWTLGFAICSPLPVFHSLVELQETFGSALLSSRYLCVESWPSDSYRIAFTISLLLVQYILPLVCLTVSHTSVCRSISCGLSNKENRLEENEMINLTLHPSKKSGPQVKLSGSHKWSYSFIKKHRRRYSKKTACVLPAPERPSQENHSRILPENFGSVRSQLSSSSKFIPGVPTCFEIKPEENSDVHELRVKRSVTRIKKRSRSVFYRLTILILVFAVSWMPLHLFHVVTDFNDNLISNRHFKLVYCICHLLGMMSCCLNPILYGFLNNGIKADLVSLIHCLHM

Homo sapiens = organism: Homo sapiens; experiment: Selective ratio against Alpha2A adrenergic receptor to that of MCH

Row | Structure (SMILES) | IC50 [1] [nM] | IC50 [2] [nM] | IC50 [3] [nM] | Selectivity (Homo sapiens)
1 | CN(C)c1nc(NC[C@H]2CC[C@H](CNS(=O)(=O)c3ccc(Br)cc3OC(F)(F)F)CC2)nc2ccccc12 | 7.7 | 160 | 2.7 | 
2 | CN(C)c1nc(N[C@H]2CC[C@@H](CNS(=O)(=O)c3ccc(Br)cc3OC(F)(F)F)CC2)nc2ccccc12 | 130 | 140 | 120 | 
3 | CN(C)c1nc(NC2CCN(Cc3ccc(Br)cc3OC(F)(F)F)CC2)nc2ccccc12 | 520 | 320 | > 1000 | 
4 | CN(Cc1ccc(Br)cc1OC(F)(F)F)CC1CCC(CNc2nc(N(C)C)c3ccccc3n2)CC1 (stereo unspecified) | 44 | 5600 | > 1000 | 
5 | CN(C)c1nc(NC2CCN(C(=O)c3ccc(Br)cc3OC(F)(F)F)CC2)nc2ccccc12 |  | 1200 |  | 
6 | CN(C)c1nc(NCC2CCC(CN(C)S(=O)(=O)c3ccc(Br)cc3OC(F)(F)F)CC2)nc2ccccc12 (stereo unspecified) | 34 | 5800 | 460 | 
7 | CN(C)c1nc(NC2CCC(CNCc3ccc(Br)cc3OC(F)(F)F)CC2)nc2ccccc12 (cis isomer) | 360 | 4.9 | 2400 | 
8 | CN(C)c1nc(NC2CCC(CNC(=O)c3ccc(Br)cc3OC(F)(F)F)CC2)nc2ccccc12 (cis isomer) | 570 | 79 | 1800 | 
9 | CN(C)c1nc(NC2CCC(NCc3ccc(Br)cc3OC(F)(F)F)CC2)nc2ccccc12 (stereo unspecified) | 170 | 35 | > 1000 | 
10 | CN(C)c1nc(NCC2CCC(CNCc3ccc(Br)cc3OC(F)(F)F)CC2)nc2ccccc12 (stereo unspecified) | 31 | 960 | 560 | 
11 | CN(C)c1nc(NC2CCN(S(=O)(=O)c3ccc(Br)cc3OC(F)(F)F)CC2)nc2ccccc12 | 170 | 250 |  | 
12 | CN(C)c1nc(NCC2CCC(CNC(=O)c3ccc(Br)cc3OC(F)(F)F)CC2)nc2ccccc12 (stereo unspecified) | 9.9 | 1500 | 470 | 

The next lines start with the values.

Row | IC50 [1] [nM] | IC50 [2] [nM] | IC50 [3] [nM] | Selectivity (Homo sapiens) | Structure (SMILES)
13 | 97 | 6.8 |  | 14 | CN(C)c1nc(N[C@H]2CC[C@@H](NC(=O)c3cccc([N+](=O)[O-])c3)CC2)nc2ccccc12
14 | 150 | 9.4 |  | 16 | CN(C)c1nc(N[C@H]2CC[C@@H](NC(=O)c3ccc(F)cc3)CC2)nc2ccccc12
15 | 200 | 38 |  | 5.3 | CN(C)c1nc(N[C@H]2CC[C@@H](NC(=O)c3ccc(F)c(F)c3F)CC2)nc2ccccc12
16 | 150 | 10 |  | 15 | CN(C)c1nc(N[C@H]2CC[C@@H](NC(=O)c3cccc(C#N)c3)CC2)nc2ccccc12
17 |  | 170 |  |  | CN(C)c1nc(N[C@H]2CC[C@@H](NC(=O)c3ccccc3F)CC2)nc2ccccc12
18 | 63 | 5.9 |  | 11 | CN(C)c1nc(N[C@H]2CC[C@@H](NC(=O)c3cccc(Br)c3)CC2)nc2ccccc12
19 | 57 | 83 | 880 |  | CN(C)c1nc(N[C@H]2CC[C@@H](NS(=O)(=O)c3ccc(Br)cc3OC(F)(F)F)CC2)nc2ccccc12
20 | 130 | 9.5 |  | 14 | CN(C)c1nc(N[C@H]2CC[C@@H](NC(=O)c3cccc(F)c3)CC2)nc2ccccc12
21 | 71 | 2 |  | 36 | COc1cc(OC)cc(C(=O)N[C@H]2CC[C@@H](Nc3nc(N(C)C)c4ccccc4n3)CC2)c1
22 | 390 | 160 | > 1000 | 2.4 | CN(C)c1nc(NC2CCC(NC(=O)c3ccc(Br)cc3OC(F)(F)F)CC2)nc2ccccc12 (cis isomer)
23 | 110 | 4.6 |  | 24 | Cc1cccc(C(=O)N[C@H]2CC[C@@H](Nc3nc(N(C)C)c4ccccc4n3)CC2)c1
24 | 76 | 4.5 |  | 17 | CN(C)c1nc(N[C@H]2CC[C@@H](NC(=O)c3cccc(Cl)c3)CC2)nc2ccccc12
25 | 260 |  | 2700 |  | CN(C)c1nc(N[C@H]2CC[C@@H](NC(=O)c3ccc(F)c(F)c3)CC2)nc2ccccc12
26 | 60 | 15 |  | 4 | CN(C)c1nc(N[C@H]2CC[C@@H](NC(=O)c3cccc(C(F)(F)F)c3)CC2)nc2ccccc12
27 | 47 | 5 |  | 9.4 | CN(C)c1nc(N[C@H]2CC[C@@H](NC(=O)c3ccc(Cl)c(Cl)c3)CC2)nc2ccccc12
